According to US5242945A, “Tetronic and thiotetronic acid derivatives as phospholipase A2 inhibitors” (American Home Products Corporation, priority 1991, dated 1993):
pIC50: −log10 of the molar value. Where two headings read alike, the source gives them in different places.

Key:
[1] = test system: platelet-activating factor (PAF) biosynthesis in human polymorphonuclear neutrophils (PMN); assay: platelet-activating factor biosynthesis in human polymorphonuclear neutrophils (in vitro phospholipase A2 assay); format: cell-based; settings: Polymorphonuclear neutrophil, human PMN
Procedure: (§1) The compounds of the invention are tested in an in vitro phospholipase A2 assay to determine the ability of the compounds to inhibit the biosynthesis of platelet-activating factor and LTB4 in purified human neutrophils.
(§2) A leukocyte enriched blood sample obtained from a healthy donor is procured by leukophoresis using a Haemonetics model 30+ blood processor (Biological Specialties, Inc., Lansdale, Penn.). The top "platelet-rich" layer is removed after a low speed spin (35 xg, 15 min, 25° C.) of the sample. The remaining cell suspension is centrifuged (400 xg, 10 min, 25° C.) to sediment the remaining cells. The supernatant is discarded and the cell pellet resuspended in 120 ml HBSS (without Ca^++ /Mg^++). The cell suspension is subjected to ficoll-hypaque sedimentation (Histopaque 1077, 400 xg, 30 min, 25° C.). Contaminating erythrocytes are lysed by hypotonic shock (1 min). The cells are then washed once with 40 ml of HBSS and resuspended with HBSS (without Ca^++ /Mg^++) to a concentration of 2.5×10^7 cells/ml for further use. Greater than 95% purity is obtained, as assessed by microscopic examination.
(§3) One ml of human PMN (2.5×10^7 cells/ml) is incubated with vehicle or drugs (10 μl) for 10 minutes at 30° C. After preincubation, an equal volume of HBSS (1 ml) containing 2.4 mM CaCl2, 6 μM calcium ionophore A23187 and 50 μCi [^3 H]-acetate is then incubated at 30° C. for 15 minutes. An aliquot (100 μl) of the reaction mixture is taken out and mixed with 900 μl of 15% ethanol. LTB4 is extracted by using solid phase extraction on reverse phase C18 columns to remove excess [^3 H]-acetate and PAD. The C18 column is prewashed once with 2 ml of ethanol and water. The sample aliquot is acidified with 0.1N HCl to pH 3 before applying to the column. The column is then washed with 2 ml of water followed by 2 ml of 15% ethanol and 2 ml of petroleum ether to remove excess labeled acetate. The sample is eluted with 2 ml of ethyl acetate. The collected samples are dried with nitrogen and resuspended in 0.5 ml RIA buffer. The quantity of LTB4 in the sample is obtained from RIA determination. For PAF determination, the reaction is terminated by addition of 5 ml chloroform:methanol:acetic acid (2:1:0.04, v/v/v). [^3 H]-PAF is obtained by Bligh and Dyer extraction. The chloroform phase is removed and dried under nitrogen. The residue is redissolved in 75 μl of chloroform:methanol (80:20, v/v). [^3 H]-PAF is resolved from other phospholipids by TLC on RPC18 plates with a solvent system of chloroform:methanol:water (2:3:1, v/v/v) and is quantitated using a Berthold automated TLC linear analyzer.
(§4) Data presented are the mean +/- s.d. of the values relative to control A23187 stimulated cells for each experiment assayed in triplicate. Percent inhibition when used is calculated as:
(§5) % Inhibition=100-[(x.div.Control)×100].
(§6) Dose response analysis is performed by non-linear regression analysis for curve fitting and IC50 determination.

[2] = test system: LTB4 biosynthesis in purified human neutrophils; assay: LTB4 biosynthesis in human polymorphonuclear neutrophils (in vitro phospholipase A2 assay); format: cell-based; settings: Neutrophil, human PMN
Procedure: as §1, §2, §3, §4, §5, §6

cyclooxygenase (PGE2) = assay: resident murine peritoneal macrophage assay, PGE2; format: cell-based, mouse (Swiss Webster); settings: Mus musculus, Peritoneal macrophage
Method in brief: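 Resident peritoneal macrophages from female Swiss Webster mice (4×10^6 cells per dish) preincubated 5 minutes with compound in serum-free M199, then activated with zymosan ([…]) or arachidonic acid (2 μM) for 2 hours. Supernatant PGE2 measured by RIA; expressed as percent inhibition of zymosan-induced synthesis.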

TPA-induced ear edema = assay: 12-o-tetradecanoylphorbol acetate (TPA)-induced murine ear edema assay; format: in vivo, mouse (Swiss Webster); settings: TPA
Method in brief: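 Female Swiss Webster mice (~8 weeks, groups of six) got AA 2 mg/ear or TPA 2 μg/ear topically on the right ear, acetone on the left. Compounds dosed topically or s.c. 30 min before AA or 30 min after TPA. Ear thickness difference measured by caliper at 1 h (AA) or 4 h (TPA), expressed as % change from control.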

[3] = arachidonic acid stimulation, read-out: PGE2 AA % Inhibition
[4] = subcutaneous, no vehicle on line

Compound | inhibition at 50 µM ([1]; 50 μM) | inhibition at 50 µM ([2]; 50 μM) | inhibition at 0.3 µM (cyclooxygenase (PGE2); [3]) | inhibition at 0.1 µM (cyclooxygenase (PGE2); zymosan stimulation) | pIC50 (cyclooxygenase (PGE2); zymosan stimulation, read-out: PGE2 zymosan IC50) | Subcutaneous % Inhibition at 50 m/kg (TPA-induced ear edema; subcutaneous, on line of vehicle acetone) | Topical % Inhibition at 200 μg (TPA-induced ear edema; vehicle EPW) | Topical % Inhibition at 200 μg (TPA-induced ear edema; vehicle acetone) | inhibition at 25 µM ([1]; 25 μM) | inhibition at 25 µM [2] | inhibition at 0.03 µM (cyclooxygenase (PGE2); zymosan stimulation, 0.03 μM) | Subcutaneous % Inhibition at 50 m/kg (TPA-induced ear edema; [4]) | inhibition at 10 µM ([1]; 10 μM) | inhibition at 0.5 µM (cyclooxygenase (PGE2); [3]) | inhibition at 0.5 µM (cyclooxygenase (PGE2); zymosan stimulation, read-out: PGE2 zymosan % Inhibition) | ED50 (TPA-induced ear edema; Mus musculus, sc, 4 h, subcutaneous, read-out: Subcutaneous ED50)
CCCCCCCC/C=C\CCCCCCCC(=O)C1=C(O)CSC1=O [Example 47, 4-Hydroxy-3-[(Z)-1-oxo-9-octadecenyl]-2(5H)-thiophenone] | 35% | 47% | -26% | 48.4% | 7.00 | 77% | 69% | 74% | – | – | – | – | – | – | – | –
CCCC/C=C\CCCCCCCC(=O)C1=C(O)CSC1=O [Example 48, 4-Hydroxy-3-[(Z)-1-oxo-9-tetra-decenyl]-2(5H)-thiophenone] | – | – | -16% | 71.8% | – | – | – | – | 76% | 86% | 25.4% | 58% | – | – | – | –
CCCCC/C=C\C/C=C\C/C=C\CCCCC(=O)C1=C(O)CSC1=O [Example 50, 4-Hydroxy-3-[(Z,Z,Z)-1-oxo-6,9,12-octadecatrienyl]-2(5H)-thiophenone] | – | – | – | 21.6% | – | – | – | – | – | 100% | – | 78% | 42% | -35% | 70.1% | 19 mg/kg
